Measured values taken from patent US20050164976A1, “Combination of a cdk inhibitor and 5-fu for the tratment of cancer” (Cyclacel Limited, priority 2002, published 2005).

Key:
MCF7 cells = test: cells; conditions: Homo sapiens
Procedure: MCF7 cells were seeded at 3,000/well in 96 well plates. Cell were allowed to settle overnight, and medium replaced with drug-containing medium the next day. Nine different drug treatments were tested, in triplicate, in each plate.

HT29 cells [1] = test: activated caspase-3 assay; type: cell-based, human; conditions: single agent, dose dependent
HT29 cells [2] = test: analysis of cell cycle distribution by flow cytometry; type: cell-based, human; conditions: single agent, 48 hours; roscovitine 20 μM and 40 μM; 5-FU 0.5 μM and 1 μM; dose dependent
HT29 cells [3] = test: cells; conditions: Homo sapiens, HT-29
Excerpt: Cells were washed in media to inactivate trypsin before reseeding or analysis.

HT29 cells [4] = conditions: single agent; 40 μM roscovitine; 1 μM 5-FU
Procedure: HT29 cells were seeded and treated with drug in the same way as for the determination of cell cycle distribution. After 24 hours, media was replaced with that containing 10 μM BrdU and incubated for 30 minutes. Detached cells were harvested, plates were washed twice in PBS and adherent cells harvested by trypsinisation. Adherent and detached cells were pooled, washed in PBS, fixed in ice cold 70% v/v ethanol and stored at 4° C. Cells were washed twice in PBS+1% BSA and treated with 2M HCl for 20 minutes, followed by a further three washes in PBS. Cells were pelleted and 2 μl of anti-BrdU antibody (Pharmingen) added to the pellet. […] After incubation at room temperature protected from light for 20 minutes, samples were analysed by flow cytometry.
A Becton Dickinson LSR flow cytometer was used for these studies, in accordance with the manufacturers recommendations. […] Where used, activated caspase-3 and BrdU positive cells were designated as such on the basis of green fluorescence (530±28 nm), acquired on a logarithmic scale. Red fluorescence (575±26 nm) was acquired on a linear scale and pulse width analysis was used to exclude cell doublets and aggregates from the analysis. Cells with a DNA content of between 2n and 4n were designated as being in G1, S or G2/M phases of the cell cycle, as defined by the level of red fluorescence. […]

[5] = tested on: human mammary cancer xenograft MAXF 857; conditions: 5FU alone at the concentrations used in the combination
Procedure: Cells were passed through sieves of 200 μm and 50 μm mesh size and washed twice with sterile PBS-buffer (Life Technologies). The percentage of viable cells was determined in a Neubauer-hemocytometer using trypan blue exclusion.
The clonogenic assay was performed in a 24-well format according to a modified two-layer soft agar assay introduced by Hamburger et al [Hamburger, A. W. & S. E. Salmon. […] The bottom layer consisted of 0.2 ml/well of Iscove's Modified Dulbecco's Medium (supplemented with 20% (v/v) fetal calf serum and 0.01% (v/v) gentamicin) and 0.75% (w/v) agar. 5·10^4 cells were added to 0.2 ml of the same culture medium supplemented with 0.4% (w/v) agar and plated in 24-multiwell dishes onto the bottom layer. Cytostatic drugs were applied by continuous exposure (drug overlay) in 0.2 ml culture medium 24 hours after seeding in the cells. Every dish included six control wells and drug-treated groups in triplicate at 6 concentrations. […] Cultures were incubated at 37° C. and 7.5% CO2 in a humidified atmosphere for 8-20 days and monitored closely for colony growth using an inverted microscope. Within this period, in vitro tumor growth led to the formation of colonies with a diameter of >50 μm. At the time of maximum colony formation, counts were performed with an automatic image analysis system (OMNICON FAS IV, Biosys GmbH). […]

IC50 (MCF7 cells) [µM] | IC50 (HT29 cells [3]) [µM] | Compound | activation of caspase-3 (HT29 cells [1]) | effect on cell cycle distribution (HT29 cells [2]) | number of cells incorporating BrdU (HT29 cells [4]) [%] | effect on cell growth [5]
8 | 1 | O=c1[nH]cc(F)c(=O)[nH]1 [5-FU, 5-Fluorouracil] | albeit to a lesser extent | accumulation of cells in S phase | 64.3 | no effect on cell growth
 |  | CC[C@H](CO)Nc1nc(NCc2ccccc2)c2ncn(C(C)C)c2n1 [roscovitine, 6-benzylamino-2-[(R)-1-ethyl-2-hydroxyethylamino]-9-isopropylpurine] | induces activation of caspase-3 | accumulation of cells in G2/M | 3.8 | 
